Test results: PMC11059360 (Nature Communications, 2024)

Biological target: T1, SLC26A2 (Homo sapiens, UniProt P50443)
T1 construct: full length, N-terminal His-tag and thrombin site (tag digested with thrombin for cryo-EM); Expi293F, BacMam; LMNG; homodimer; model covers residues 52-724
T1 sequence (P50443 1-739): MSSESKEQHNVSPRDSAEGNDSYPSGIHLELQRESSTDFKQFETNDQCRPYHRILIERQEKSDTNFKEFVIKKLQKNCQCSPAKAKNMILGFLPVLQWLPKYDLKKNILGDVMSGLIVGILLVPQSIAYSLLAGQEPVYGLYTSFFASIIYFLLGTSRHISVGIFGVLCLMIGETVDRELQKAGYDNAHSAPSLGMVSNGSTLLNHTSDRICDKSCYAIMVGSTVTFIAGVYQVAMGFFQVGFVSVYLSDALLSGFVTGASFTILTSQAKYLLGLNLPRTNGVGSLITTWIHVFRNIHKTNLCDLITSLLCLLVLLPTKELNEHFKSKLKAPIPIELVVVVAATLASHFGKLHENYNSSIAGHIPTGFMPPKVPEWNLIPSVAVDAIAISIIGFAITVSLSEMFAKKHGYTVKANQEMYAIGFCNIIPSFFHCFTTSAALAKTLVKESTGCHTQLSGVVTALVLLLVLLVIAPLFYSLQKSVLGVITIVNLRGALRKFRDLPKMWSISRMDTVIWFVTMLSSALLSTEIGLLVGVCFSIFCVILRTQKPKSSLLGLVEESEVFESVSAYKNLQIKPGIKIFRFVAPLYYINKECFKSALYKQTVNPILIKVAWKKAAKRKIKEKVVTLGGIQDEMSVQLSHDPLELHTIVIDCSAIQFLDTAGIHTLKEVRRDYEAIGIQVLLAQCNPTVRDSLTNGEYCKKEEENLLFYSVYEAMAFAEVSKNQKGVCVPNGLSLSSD
Test: cryo-EM structure of the complex
Format: binding
Settings: pH 7.5, LMNG

Compound	cryo-EM structure of the complex (150 mM NaCl, canonical TM3/TM10 pocket, inward-facing)	cryo-EM structure of the complex (50 mM K2C2O4, no NaCl, weak density outside the canonical pocket, between TM5 and TM12)
Cl [Cl^−]	we identified a distinct density corresponding to the Cl^- ion in this cleft	–
O=C(O)C(=O)O [C2O4^2−]	–	weak densities outside the pocket
